Assay results as given in patent publication US6342490B1, “Pharmaceutical composition containing uscharidin or its analogues” (Phyto Corporation Limited, priority 1997, dated 2002).

What was measured:
[1] = test system: SCC-1 cells; test: Nude mice injected with SCC-1 human tumour cells, drug treatment; type: in vivo, mice (BALB/c nude); settings: nude mice with SCC-1 cells; versus control
Method: The SCCI cells (human tumour cell line) where grown (1×10^5/ml seeding density) in 25 ml RPMI 1640 (10% foetal calf serum, 5% glutamine) in 75 cm^2 tissue culture flasks. The cells were harvested at log growth phase (5 days approximately) and washed once in saline before injection into the mice.
The “nude” mice (BALB/c nude) are reared and contained within a sealed isolator. The mice were injected with 1×10^7 cells subcut on the back, right hand side near the shoulder blades. After 7 days the mice were split randomly into the study groups (10-15 animals per group). Each was then treated with a different regime, the variable being time between injections and dose of drug at each injection, control groups were also included in the overall plan of the experiement.
During the trial a daily check was made on the animals and any animal removed if the tumour size became too large (>5-7% total body weight) or if the animal is showing signs of distress. Additional to this the tumour should be assessed every 3-4 days by an independent observer and the result recorded. Once an animal is removed from the study the tumour size, volume and weight was determined and the tumour stored for further cytological study. The reason for the animals removal from the study was also recorded, if this was not due to tumour size. […]

[2] = test system: cancer cell lines; test: NCI in vitro cell screening (SRB, dose-response); type: cell-based; settings: NCI panel, 48 hours
Source text: Uscharin was obtained as in Example 2 and was subjected to in vitro cell screening at the National Cancer Institute (NCI), USA in respect of a panel of cancel cell types organised into subpanels representing leukemia, lung cancers, colon cancer, cancer of the central nervous system, melanoma, ovarian cancer, renal cancer, and in some cases prostate cancer and breast cancer also.
The standard NCI methodology which was employed is described in Michael R Boyd, Principles and Practices of Oncology, Vol, 3, No. 10 (October 1989) and Monks A. et al., Journal of the National Cancer Institute, Vol. 83, No. 11, (Jun. 5, 1991).
The Dose-Response Curve is created by plotting the Calculated Percent Growth (PG) of each cell line against the log(10) of the corresponding drug concentration. The cell line curves are grouped by cell type, or subpanel. Mean Log(10) concentrations for all cell lines tested are calculated at three points: where the test compound achieved 50% inhibition of cell growth (GI50), where the test compound achieved 0% cell growth or total growth inhibition (TGI), and where the test compound achiveved 50% cell kill or 50% lethal concentration (LC50). Reference lines are shown at the percent growth values of +50 (GI50), 0 (TGI) and −50 (LC50).
Percentage Growth (PG)—of the compound on a cell line is currently calculated according to one of the following expressions:
If (Mean OD(test)−Mean OD(tzero)>=0,
PG=100×(Mean OD(test)−Mean OD(tzero)/(mean OD(ctrl)−Mean OD(tzero)
If (Mean OD(test−Mean OD(tzero)<0,
PG=100×(Mean OD(test)−Mean OD(tzero)/Mean OD(tzero)
Mean OD (tzero)=The average of optical density measurements of SRB-derived colour just before exposure of cells to the test compound.
Mean OD (test)=The average of optical density measurements of SRB-derived colour after 48 hours […] of cells to the test compound.
Mean OD (ctrl)=The average of optical density measurements of SRB-derived colour after 48 hours […] of cells to the test compound.

[3] = test system: tumour; settings: cited from earlier work
[4] = test system: primate tumour cells; settings: cited from earlier work

Compound: C[C@@H]1C[C@@]2(N=CCS2)[C@]2(O)O[C@@H]3C[C@@]4(C=O)[C@@H](CC[C@@H]5[C@@H]4CC[C@]4(C)[C@@H](C6=CC(=O)OC6)CC[C@]54O)C[C@H]3O[C@@H]2O1 [Uscharin, uscharin]
- reduction in percentage mortality due to the cancer cells [1]: up to 45%
- inhibitory effect on the growth of cancer cell lines in vitro [2]: inhibitory effect

Compound: C[C@@H]1CC(=O)[C@]2(O)O[C@@H]3C[C@@]4(C=O)[C@@H](CC[C@@H]5[C@@H]4CC[C@]4(C)[C@@H](C6=CC(=O)OC6)CC[C@]54O)C[C@H]3O[C@@H]2O1 [Uscharidin, uscharidin]
- inhibitory effect on the growth of cancer cell lines in vitro [2]: inhibitory effect

Compound: C[C@H]1O[C@H]2O[C@@H]3C[C@@H]4CC[C@@H]5C(CC[C@]6(C)[C@@H](C7=CC(=O)OC7)CC[C@]56O)[C@@]4(C=O)C[C@H]3O[C@@]2(O)[C@H](O)[C@@H]1O (stereo partly shown) [calotoxin]
- inhibitory effect on the growth of cancer cell lines in vitro [2]: inhibitory effect

Compound: C[C@]12CC[C@H](O)C[C@@H]1CC[C@@H]1[C@@H]2CC[C@]2(C)[C@@H](C3=CC(=O)OC3)CC[C@]12O [uzarigenin]
- in vivo tumour-inhibiting activity [3]: no in vivo tumour-inhibiting activity
- cytotoxic activity against primate tumour cells [4]: cytotoxic activity

Compound: C[C@@H]1C[C@H](O)[C@]2(O)O[C@@H]3C[C@@]4(C=O)[C@@H](CC[C@@H]5[C@@H]4CC[C@]4(C)[C@@H](C6=CC(=O)OC6)CC[C@]54O)C[C@H]3O[C@@H]2O1 [calotropin]
- in vivo tumour-inhibiting activity [3]: no in vivo tumour-inhibiting activity
